This note sets out measurements from PubChem BioAssay AID248 (DTP/NCI, 2004).

The test system of this assay is L1210 leukemia ip in BDF1 mice, survival T/C. Kind of assay: NCI In Vivo Anticancer Drug Screen. Data for tumor model L1210 Leukemia (intraperitoneal) in B6D2F1 (BDF1) mice. The conditions noted are these: endpoint: mean survival time, higher = longer survival. The method in brief:
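Antitumor effect is assessed in tumor-bearing animals. Survival in the compound arm is compared with a vehicle-dosed control arm and expressed as their quotient.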

Setting [1] is: dose: 25.0 mg/kg/injection, schedule: Q01DX009 (ip), vehicle: saline with Tween-80.
Setting [2] is: dose: 50.0 mg/kg/injection, schedule: Q01DX009 (ip), vehicle: saline with Tween-80.
[3] abbreviates: dose: 100.0 mg/kg/injection, schedule: Q01DX001 (ip), vehicle: saline.
Setting [4] is: dose: 100.0 mg/kg/injection, schedule: Q04DX002 (ip), vehicle: Klucel (hydroxypropylcellulose) (HPC).
Setting [5] is: dose: 200.0 mg/kg/injection, schedule: Q04DX002 (ip), vehicle: Klucel (hydroxypropylcellulose) (HPC).
Setting [6] is: dose: 400.0 mg/kg/injection, schedule: Q04DX002 (ip), vehicle: Klucel (hydroxypropylcellulose) (HPC).
The mark [7] stands for this setting: dose: 100.0 mg/kg/injection, schedule: Q04DX003 (ip), vehicle: Klucel (hydroxypropylcellulose) (HPC).
Where [8] appears, read: dose: 200.0 mg/kg/injection, schedule: Q04DX003 (ip), vehicle: Klucel (hydroxypropylcellulose) (HPC).
[9] abbreviates: dose: 400.0 mg/kg/injection, schedule: Q04DX003 (ip), vehicle: Klucel (hydroxypropylcellulose) (HPC).
The mark [10] stands for this setting: dose: 100.0 mg/kg/injection, schedule: Q01DX001 (ip), vehicle: carboxymethylcellulose (CMC).
[11] abbreviates: dose: 200.0 mg/kg/injection, schedule: Q01DX001 (ip), vehicle: carboxymethylcellulose (CMC).
Setting [12] is: dose: 400.0 mg/kg/injection, schedule: Q01DX001 (ip), vehicle: carboxymethylcellulose (CMC).
Where [13] appears, read: dose: 75.0 mg/kg/injection, schedule: Q01DX001 (ip), vehicle: saline.
Where [14] appears, read: dose: 150.0 mg/kg/injection, schedule: Q01DX001 (ip), vehicle: saline.
Where [15] appears, read: dose: 100.0 mg/kg/injection, schedule: Q01DX009 (ip), vehicle: saline with Tween-80.
Setting [16] is: dose: 100.0 mg/kg/injection, schedule: Q01DX009 (ip), vehicle: Klucel (hydroxypropylcellulose) (HPC).
[17] abbreviates: dose: 200.0 mg/kg/injection, schedule: Q01DX009 (ip), vehicle: Klucel (hydroxypropylcellulose) (HPC).

“And” between values parts separate entries of the source, which are not always exact repeats. Equal values may be shown once. Toxic doses and inconclusive results are not listed.

Turning to `C=C(Br)CSC#N`, the T/C runs as follows: (dose: 12.5 mg/kg/injection, schedule: Q01DX009 (ip), vehicle: saline with Tween-80) 93 % of control; under setting [1], 102 % of control; under setting [2], 89 % of control.

For the molecule `NCCCN=C=NCc1ccccc1`, the T/C under setting [3] was 100 % of control.

Regarding `O=C1C(n2ccc(=O)[nH]c2=O)CCN1CCO` (stereo not given), the T/C runs as follows: (dose: 100.0 mg/kg/injection, schedule: Q01DX009 (ip), vehicle: saline) 105 % of control; (dose: 200.0 mg/kg/injection, schedule: Q01DX009 (ip), vehicle: saline) 100 % of control; (dose: 400.0 mg/kg/injection, schedule: Q01DX009 (ip), vehicle: saline) 97 % of control.

For the molecule `CCN1CCCN(CC)C1=O`, the T/C was 96 % of control under setting [4], 96 % of control under setting [5] and 90 % of control under setting [6].

For the molecule `CCCCCCCCCCCC(=O)Nc1ccc(O)cc1`, the T/C (dose: 25.0 mg/kg/injection, schedule: Q01DX009 (ip), vehicle: gum acacia) is 93 % of control; the T/C (dose: 50.0 mg/kg/injection, schedule: Q01DX009 (ip), vehicle: gum acacia) was 93 % of control; the T/C (dose: 100.0 mg/kg/injection, schedule: Q01DX009 (ip), vehicle: gum acacia) is 96 % of control; the T/C (dose: 100.0 mg/kg/injection, schedule: Q04DX003 (ip), vehicle: gum acacia) is 88 % of control; the T/C (dose: 200.0 mg/kg/injection, schedule: Q01DX009 (ip), vehicle: gum acacia) was 92 % of control; the T/C (dose: 200.0 mg/kg/injection, schedule: Q04DX003 (ip), vehicle: gum acacia) was 86 % of control. The T/C (dose: 400.0 mg/kg/injection, schedule: Q01DX009 (ip), vehicle: gum acacia) was 92 % of control and the T/C (dose: 400.0 mg/kg/injection, schedule: Q04DX003 (ip), vehicle: gum acacia) is 95 % of control.

Regarding `Nc1ncnc(N)c1NC(=O)c1cccc([N+](=O)[O-])c1`, the T/C by setting is: under setting [7], 98 % of control; under setting [8], 103 % of control; under setting [9], 93 % of control.

Turning to `NCC(=O)CCS(=O)(=O)c1ccc(Cl)cc1`, the T/C runs as follows: (dose: 12.5 mg/kg/injection, schedule: Q04DX003 (ip), vehicle: saline) 96 % of control; (dose: 25.0 mg/kg/injection, schedule: Q04DX003 (ip), vehicle: saline) 91 % of control; (dose: 50.0 mg/kg/injection, schedule: Q04DX003 (ip), vehicle: saline) 93 % of control.

In the case of `CCCOP(=O)(N1CC1(C)C)N1CC1(C)C` (stereo not given), the T/C was 201 % of control (dose: 100.0 mg/kg/injection, schedule: Q04DX002 (ip), vehicle: saline) and 155 % of control (dose: 200.0 mg/kg/injection, schedule: Q04DX002 (ip), vehicle: saline).

As to `CS(=O)(=O)Oc1c(Br)cc(Br)c2cccnc12`, the T/C was 104 % of control under setting [10], 98 % of control under setting [11] and 98 % of control under setting [12].

On to `CCCCCCCC(=O)Nc1c(C)cc(C)cc1C`, for which the T/C is 95 % of control (dose: 100.0 mg/kg/injection, schedule: Q04DX003 (ip), vehicle: saline with Tween-80); 92 % of control (dose: 200.0 mg/kg/injection, schedule: Q04DX003 (ip), vehicle: saline with Tween-80); 93 % of control (dose: 400.0 mg/kg/injection, schedule: Q04DX003 (ip), vehicle: saline with Tween-80).

With `NC1(C(=O)O)CCC(N)(C(=O)O)CC1` (stereo not given), the T/C is, setting by setting: under setting [13], 110 % of control; under setting [14], 100 % of control.

For `S=C(SC(=S)N(C1CCCCC1)C1CCCCC1)N(C1CCCCC1)C1CCCCC1`, the T/C under setting [1] is 92 % of control; the T/C under setting [2] is 90 % of control; the T/C under setting [15] was 86 % of control and 89 % of control.

For the molecule `O=C1Nc2ccccc2C1(O)c1ccccc1` (stereo not given), the T/C was 103 % of control under setting [13]; 101 % of control under setting [14]; 92 % of control (dose: 300.0 mg/kg/injection, schedule: Q01DX001 (ip), vehicle: saline).

For the molecule `Oc1ccccc1-c1nnco1`, the T/C is 94 % of control (dose: 50.0 mg/kg/injection, schedule: Q01DX001 (ip), vehicle: carboxymethylcellulose (CMC)); 92 % of control under setting [10]; 94 % of control under setting [11]; 94 % of control under setting [12].

`COc1ccc(OC)c(C(O)C(C)NC(C)(C)C)c1` (stereo not given): the T/C is 106 % of control (dose: 50.0 mg/kg/injection, schedule: Q01DX001 (ip), vehicle: saline) and 97 % of control under setting [3].

As for `COc1ccc(OC)c(NC(=O)Nc2cc(OC)ccc2OC)c1`, the T/C was 106 % of control under setting [15]; 97 % of control (dose: 200.0 mg/kg/injection, schedule: Q01DX009 (ip), vehicle: saline with Tween-80); 94 % of control (dose: 400.0 mg/kg/injection, schedule: Q01DX009 (ip), vehicle: saline with Tween-80).

As for `S=C(NNc1ccccc1)NC1CCCCC1`, the T/C (dose: 150.0 mg/kg/injection, schedule: Q01DX009 (ip), vehicle: saline with Tween-80) was 95 % of control; the T/C (dose: 225.0 mg/kg/injection, schedule: Q01DX009 (ip), vehicle: saline with Tween-80) is 97 % of control; the T/C (dose: 335.0 mg/kg/injection, schedule: Q01DX009 (ip), vehicle: saline with Tween-80) is 92 % of control.

As for `CC(C)N(C(=S)[S-])C(C)C.CC(C)N(C(=S)[S-])C(C)C.[Zn]`, the T/C (dose: 37.5 mg/kg/injection, schedule: Q01DX009 (ip), vehicle: saline) is 89 % of control; the T/C (dose: 75.0 mg/kg/injection, schedule: Q01DX001 (ip), vehicle: acetone) was 97 % of control; the T/C (dose: 75.0 mg/kg/injection, schedule: Q01DX009 (ip), vehicle: saline) is 90 % of control; the T/C (dose: 75.0 mg/kg/injection, schedule: Q04DX003 (ip), vehicle: saline) is 101 % of control; the T/C (dose: 150.0 mg/kg/injection, schedule: Q01DX001 (ip), vehicle: acetone) was 92 % of control; the T/C (dose: 150.0 mg/kg/injection, schedule: Q01DX009 (ip), vehicle: saline) is 86 % of control. Besides, the T/C is, setting by setting: (dose: 150.0 mg/kg/injection, schedule: Q04DX003 (ip), vehicle: saline) 90 % of control; (dose: 300.0 mg/kg/injection, schedule: Q01DX001 (ip), vehicle: acetone) 93 % of control; (dose: 300.0 mg/kg/injection, schedule: Q04DX003 (ip), vehicle: saline) 86 % of control.

Regarding `CCC(=O)/C=C/c1ccc(Cl)cc1`, the T/C under setting [16] was 98 % of control; the T/C under setting [7] is 98 % of control; the T/C under setting [17] is 97 % of control; the T/C under setting [8] was 104 % of control; the T/C (dose: 400.0 mg/kg/injection, schedule: Q01DX009 (ip), vehicle: Klucel (hydroxypropylcellulose) (HPC)) was 97 % of control; the T/C under setting [9] was 102 % of control.

Regarding `CCOP(=O)(OCCBr)C(c1ccccc1)(c1ccccc1)c1ccccc1` (stereo not given), the T/C was 89 % of control under setting [4], 92 % of control under setting [5] and 92 % of control under setting [6].

For `CCOC1(OCC)CC2C(=O)CCCC21OC(C)=O` (stereo not given), the T/C reads like this: (dose: 75.0 mg/kg/injection, schedule: Q04DX002 (ip), vehicle: saline) 111 % of control; (dose: 150.0 mg/kg/injection, schedule: Q04DX002 (ip), vehicle: saline) 105 % of control; (dose: 300.0 mg/kg/injection, schedule: Q04DX002 (ip), vehicle: saline) 101 % of control.

`O=C(O)CSc1cc(Cl)ccc1Cl`: the T/C by setting is: (dose: 12.5 mg/kg/injection, schedule: Q01DX009 (ip), vehicle: Klucel (hydroxypropylcellulose) (HPC)) 102 % of control; (dose: 25.0 mg/kg/injection, schedule: Q01DX009 (ip), vehicle: Klucel (hydroxypropylcellulose) (HPC)) 100 % of control; (dose: 50.0 mg/kg/injection, schedule: Q01DX009 (ip), vehicle: Klucel (hydroxypropylcellulose) (HPC)) 106 % of control and 121 % of control; under setting [16], 104 % of control and 92 % of control; under setting [4], 104 % of control; under setting [17], 105 % of control. Also, under setting [5], the T/C is 110 % of control.
